Laboratory results taken from patent US9910031B2, “Compositions and methods for modulating c-Rel-dependent cytokine production” (Synta Pharmaceuticals Corporation, priority 2003, dated 2018).

Columns and labels:
[1] = tested on: human IL-12 p35 promoter; experiment: IL-12 p35 promoter/luciferase reporter in transiently transfected RAW264.7 cells; format: cell-based, murine; conditions: for p35 promoter-driven luciferase expression: RAW264.7, IFN-γ/LPS or IFN-γ/SAC
Description: (§1) As a result of the Northern blot findings, we undertook a study of the p35 and p40 promoter activities. We transiently transfected the murine macrophage cell line RAW264.7 with DNA constructs in which the p35 and p40 promoters directed expression of the luciferase reporter gene. The RAW264.7 cell line was obtained from American Type Culture Collection (Manassas, Va.) and was cultured in DMEM (ATCC, Manassas, Va.) supplemented with 10% FCS (ATCC, Manassas, Va.), and 1% penicillin/Streptomycin (Gibco-BRL, New York, N.Y.).
Both p35 and p40 promoter-driven luciferase production in response to stimulation were determined in the presence or absence of Compound 1 and Compound 2. To construct the human IL-12 p35 and p40 promoter/luciferase reporter constructs, we generated p35 (−1.5 kb to +3 bp) and p40 (−1.3 kb to +56 bp) promoter fragments, which contained several sequence motifs of the human IL-12 p35 and p40 genes. The fragments were generated by PCR from genomic DNA obtained from human PBMC using primers as follows: IL-12 p35 1.5 kb-F: 5′-[…]-3′(SEQ ID NO:3) and IL-12 p35 1.5 kb-R: 5′-[…]-3′ (SEQ ID NO:4); IL-12 p40 −1.3 kb-F: 5′-[…]-3′ (SEQ ID NO:5) and IL-12 p40 1.3 kb-R: 5′-[…]-3′ (SEQ ID NO:6). The deletion in the p40 promoter reporter constructs were generated by PCR with primers as follows: IL-12 p40 −250 bp to +56 bp (p40/−250 bp) F: 5′-[…]-3′(SEQ ID NO:7) and IL-12 p40 −250 bp to +56 bp (p401/−250 bp) R: 5′-TGCTCTGGGCAGGACGGAG-3′ (SEQ ID NO:8); IL-12 p40 −150 bp to +56 bp (p40/−150 bp) F: 5′-[…]-3′ (SEQ ID NO:9) and IL-12 p40 −150 bp to +56 bp (p40/−150 bp) R: 5′-TGCTCTGGGCAGGACGGAG-3′(SEQ ID NO:10). […]
Cells were co-transfected with the vector pCMV (BD Biosciences Clontech) in which the constitutively active CMV promoter directs β-galactosidase expression for the monitoring of transfection efficiency. Luciferase and β-galactosidase activity were determined in cell extracts prepared according to the Luciferase assay system (Promega) and Luminescent n-gal Detection system (BD Biosciences Clontech). […]

[2] = tested on: human IL-12 p40 promoter; experiment: IL-12 p40 promoter/luciferase reporter in transiently transfected RAW264.7 cells; format: cell-based, murine; conditions: for p40 promoter-driven luciferase expression: RAW264.7, IFN-γ/LPS or IFN-γ/SAC
Description: as §1
Both p35 and p40 promoter-driven luciferase production in response to stimulation were determined in the presence or absence of Compound 1 and Compound 2. To construct the human IL-12 p35 and p40 promoter/luciferase reporter constructs, we generated p35 (−1.5 kb to +3 bp) and p40 (−1.3 kb to +56 bp) promoter fragments, which contained several sequence motifs of the human IL-12 p35 and p40 genes. The fragments were generated by PCR from genomic DNA obtained from human PBMC using primers as follows: IL-12 p35 1.5 kb-F: 5′-[…]-3′(SEQ ID NO:3) and IL-12 p35 1.5 kb-R: 5′-[…]-3′ (SEQ ID NO:4); IL-12 p40 −1.3 kb-F: 5′-[…]-3′ (SEQ ID NO:5) and IL-12 p40 1.3 kb-R: 5′-[…]-3′ (SEQ ID NO:6). The deletion in the p40 promoter reporter constructs were generated by PCR with primers as follows: IL-12 p40 −250 bp to +56 bp (p40/−250 bp) F: 5′-[…]-3′(SEQ ID NO:7) and IL-12 p40 −250 bp to +56 bp (p401/−250 bp) R: 5′-TGCTCTGGGCAGGACGGAG-3′ (SEQ ID NO:8); IL-12 p40 −150 bp to +56 bp (p40/−150 bp) F: 5′-[…]-3′ (SEQ ID NO:9) and IL-12 p40 −150 bp to +56 bp (p40/−150 bp) R: 5′-TGCTCTGGGCAGGACGGAG-3′(SEQ ID NO:10). The resulting PCR products were ligated upstream of the luciferase gene in pGL3-Basic vector (Promega). All constructs were verified by DNA sequencing.
Transfection was accomplished using SuperFect Transfection Reagent (Qiagen) by the described protocol. Total amount of transfect DNA was kept constant by including the respective control plasmids without insertions.
Cells were co-transfected with the vector pCMV (BD Biosciences Clontech) in which the constitutively active CMV promoter directs β-galactosidase expression for the monitoring of transfection efficiency. Luciferase and β-galactosidase activity were determined in cell extracts prepared according to the Luciferase assay system (Promega) and Luminescent n-gal Detection system (BD Biosciences Clontech). Luciferase activity was then normalized using the β-galactosidase value. […] ELISA was performed by the following method. Human IL-12 p70 (heterodimer) was assayed using ELI-PAIR kit from Cell Sciences (Norwood, Mass.), according to the manufacturer's instructions. Human IL-12 p40 was assayed using ELISA kit from Cell Sciences (Norwood, Mass.) according to the manufacturer's instructions.
We then set out to analyze the IL-12 transcriptional promoter elements that played a role in this effect. We performed deletion analyses using the p40 promoter. This promoter, rather than the p35 promoter, was chosen because the transcriptional elements are better defined in the p40 promoter. To identify the IL-12 inhibitor responsive elements involved in the p40 gene transcription activation, three different promoters were constructed and transiently transfected into RAW264.7 cells.
To assess the role of individual p40 promoter transcription elements in more detail, mutations within many of these elements have been generated. […]

[3] = tested on: IL-12 production in THP-1 cells; experiment: Inhibition of IL-12 production in THP-1 cells (ELISA); format: cell-based; conditions: Homo sapiens, read-out: IC50 against IL-12 production
Excerpt: The foregoing and other useful combination therapies will be understood and appreciated by those of skill in the art. Potential advantages of such combination therapies include the ability to use less of each of the individual active ingredients to minimize toxic side effects, synergistic improvements in efficacy, improved ease of administration or use and/or reduced overall expense of compound preparation or formulation. The biological activities of a compound of this invention can be evaluated by a number of cell-based assays. One of such assays can be conducted using cells from human peripheral blood mononuclear cells (PBMC) or human monocytic cell line (THP-1). The cells are stimulated with a combination of human interferon-γ (IFN-γ) and lipopolysaccharide or a combination of IFN-γ and Staphylococcus aureus Cowan I in the presence of a test compound. The level of inhibition of IL-12 production can be measured by, e.g., determining the amount of p70 by using a sandwich ELBA assay with anti-human IL-12 antibodies. IC50 of the test compound can then be determined. Specifically, PBMC or THP-1 cells are incubated with the test compound. Cell viability was assessed using the bioreduction of MTS [3-(4,5-dimethylthiazol-2-yl)-5-(3-carboxymethoxyphenyl)-2-(4-sulfophenyl)-2H-tetrazolium] (Promega, Madison, Wis.). […]

Row | Structure (SMILES) | p35 promoter-driven luciferase expression [1] | p40 promoter-driven luciferase expression [2] | IL-12 p40 promoter-driven luciferase activity, deletion construct ([2]; RAW264.7, IFN-γ/LPS, promoter containing Ets-2, PU-1, NF-κB and API elements) | IC50 [3] [nM] | p35 promoter-driven luciferase expression, comparison between compounds ([1]; RAW264.7, stimulated by IFN-γ/LPS, Compound 2 compared with Compound 1) | effect of ICSBP over-expression on inhibition of p40 expression ([2]; co-transfection of ICSBP with IL-12 promoter-Luc reporter) | inhibition of expression in NFκB-element mutant p40 promoter construct ([2]; site-directed mutant of the NFκB element, IFN-γ/LPS)
1 | C(=NNc1nc(OCCc2ccccn2)nc(N2CCOCC2)n1)c1c[nH]c2ccccc12 [Compound 1, N-(1H-indol-3-ylmethylene)-N′-[4-morpholin-4-yl-6-(2-pyridin-2-yl-ethoxy)-[1,3,5]triazin-2-yl]-hydrazine] | suppressed | suppressed | significantly suppressed | 40 |  |  | 
2 | Cc1cccc(C=NNc2cc(N3CCOCC3)nc(OCCc3ccccn3)n2)c1 [Compound 2, N-(3-methyl-benzylidene)-N′-[6-morpholin-4-yl-2-(2-pyridin-2-yl-ethoxy)-pyrimidin-4-yl]-hydrazine] | suppressed | suppressed |  | 10 | inhibited more effectively | decreased the inhibition | reduced
